Assay results taken from patent US20250382305A1 (PTC THERAPEUTICS, INC., priority 2022, published 2025).

Assays:
[1] = tested on: Total ATXN3 (tATXN3) protein; assay: Endogenous Total ATXN3 (tATXN3) Protein Assay (MSD immunoassay of cell lysates); format: cell-based; conditions: average IC50, total ATXN3 protein in cell lysate after 48 h with compound (Table 1)
Summary of the method: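 By electrochemiluminescent MSD sandwich immunoassay (mouse monoclonal capture, rabbit monoclonal and SULFO-TAG anti-rabbit detection), endogenous ATXN3 was quantified in lysates of cells treated 48 h at 37° C at 10,000 cells/well. Treatment used a 7-point 3.16-fold duplicate dilution series, with average IC50 grouped into star categories.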

ATXN3 pre-mRNA = assay: RT-qPCR Assay to Quantify Exon 4 Skipping in ATXN3 pre-mRNA in Cells; format: cell-based; conditions: percent exon 4 skipping in ATXN3 pre-mRNA, RT-qPCR of cell lysates; average IC50
Summary of the method: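 IC50 derives from a dose-response fit of percent exon 4 skipping, quantified by RT-qPCR on crude lysates. Compounds tested as 7-point 3.16-fold dilutions in duplicate; cells (10,000/well) were exposed for 24 h at 37 °C before lysis.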

Row | IC50 [1] [nM] | IC50 (ATXN3 pre-mRNA) [nM] | Compound
1 | ≤ 30 | ≤ 30 | Cc1c([C@@H]2CC=CC[C@H]2N)sc2c(NCc3cccs3)cc(Cl)nc12 [Compound 220, 2-((1R,6R)-6-aminocyclohex-3-en-1-yl)-5-chloro-3-methyl-N-(thiophen-2-ylmethyl)thieno[3,2-b]pyridin-7-amine]
2 | ≤ 30 | ≤ 30 | N[C@H]1CCC(=O)C[C@@H]1c1sc2c(NCc3ccco3)cc(Cl)nc2c1Cl [Compound 221, (3S,4S)-4-amino-3-(3,5-dichloro-7-((furan-2-ylmethyl)amino)thieno[3,2-b]pyridin-2-yl)cyclohexan-1-one]
3 | ≤ 30 | ≤ 30 | Cc1c([C@H]2CC=CC[C@@H]2N)sc2c(NCc3cccs3)cc(Cl)nc12 [Compound 222, 2-((1S,6S)-6-aminocyclohex-3-en-1-yl)-5-chloro-3-methyl-N-(thiophen-2-ylmethyl)thieno[3,2-b]pyridin-7-amine]
4 | ≤ 30 | ≤ 30 | Cc1c([C@H]2CC=CC[C@@H]2N)sc2c(NCc3nccs3)nc(Cl)nc12 [Compound 223, 6-((1S,6S)-6-aminocyclohex-3-en-1-yl)-2-chloro-7-methyl-N-(thiazol-2-ylmethyl)thieno[3,2-d]pyrimidin-4-amine]
5 | ≤ 30 | ≤ 30 | N[C@H]1CCCO[C@@H]1c1c(I)c2nc(Cl)nc(NCc3ccco3)c2n1C(F)F [Compound 225, 6-((2S,3S)-3-aminotetrahydro-2H-pyran-2-yl)-2-chloro-5-(difluoromethyl)-N-(furan-2-ylmethyl)-7-iodo-5H-pyrrolo[3,2-d]pyrimidin-4-amine]
6 | ≤ 30 | ≤ 30 | N[C@H]1CC=CC[C@@H]1c1sc2c(NCc3ccccc3)nc(Cl)nc2c1I [Compound 229, 6-((1S,6S)-6-aminocyclohex-3-en-1-yl)-N-benzyl-2-chloro-7-iodothieno[3,2-d]pyrimidin-4-amine]
7 | ≤ 30 | ≤ 30 | CC#CCNc1cc(Cl)nc2c(Br)c([C@H]3CC=CC[C@@H]3N)sc12 [Compound 230, 2-((1S,6S)-6-aminocyclohex-3-en-1-yl)-3-bromo-N-(but-2-yn-1-yl)-5-chlorothieno[3,2-b]pyridin-7-amine]
8 | ≤ 30 | ≤ 30 | Cc1c([C@H]2CCCC[C@@H]2N)sc2c(NCc3ccco3)cc(Cl)nc12 [Compound 231, 2-((1S,2S)-2-aminocyclohexyl)-5-chloro-N-(furan-2-ylmethyl)-3-methylthieno[3,2-b]pyridin-7-amine]
9 | ≤ 30 | ≤ 30 | Cc1c([C@H]2COCC[C@@H]2N)sc2c(NCc3cccs3)cc(Cl)nc12 [Compound 232, 2-((3R,4S)-4-aminotetrahydro-2H-pyran-3-yl)-5-chloro-3-methyl-N-(thiophen-2-ylmethyl)thieno[3,2-b]pyridin-7-amine]
10 | ≤ 30 | ≤ 30 | CC1=C(C)C[C@H](N)[C@@H](c2sc3c(NCc4ccco4)cc(Cl)nc3c2Cl)C1 [Compound 233, 2-((1S,6S)-6-amino-3,4-dimethylcyclohex-3-en-1-yl)-3,5-dichloro-N-(furan-2-ylmethyl)thieno[3,2-b]pyridin-7-amine]
11 | ≤ 30 | ≤ 30 | Cc1c([C@H]2CC=CC[C@@H]2N)sc2c(NCc3ccncc3)nc(Cl)nc12 [Compound 234, 6-((1S,6S)-6-aminocyclohex-3-en-1-yl)-2-chloro-7-methyl-N-(pyridin-4-ylmethyl)thieno[3,2-d]pyrimidin-4-amine]
12 | ≤ 30 | ≤ 30 | N[C@H]1CC=CC[C@@H]1c1sc2c(NCc3cccs3)cc(Cl)nc2c1C#CCCCCO [Compound 235, 6-(2-((1S,6S)-6-aminocyclohex-3-en-1-yl)-5-chloro-7-((thiophen-2-ylmethyl)amino)thieno[3,2-b]pyridin-3-yl)hex-5-yn-1-ol]
13 | ≤ 30 | ≤ 30 | N[C@H]1CC=CC[C@@H]1c1sc2c(NCc3ccncc3F)nc(Cl)nc2c1Cl [Compound 236, 6-((1S,6S)-6-aminocyclohex-3-en-1-yl)-2,7-dichloro-N-((3-fluoropyridin-4-yl)methyl)thieno[3,2-d]pyrimidin-4-amine]
14 | ≤ 30 | ≤ 30 | N[C@H]1CCCC[C@@H]1c1sc2c(NCc3ccccc3)cc(Cl)nc2c1Cl [Compound 237, 2-((1S,2S)-2-aminocyclohexyl)-N-benzyl-3,5-dichlorothieno[3,2-b]pyridin-7-amine]
15 | ≤ 30 | 30 to 300 | N[C@H]1COCC[C@@H]1c1sc2c(NCc3ccco3)cc(Cl)nc2c1Br [Compound 238, 2-((3R,4S)-3-aminotetrahydro-2H-pyran-4-yl)-3-bromo-5-chloro-N-(furan-2-ylmethyl)thieno[3,2-b]pyridin-7-amine]
16 | ≤ 30 | ≤ 30 | N[C@H]1CC=CC[C@@H]1c1sc2c(NCc3ccncc3F)cc(Cl)nc2c1Cl [Compound 239, 2-((1S,6S)-6-aminocyclohex-3-en-1-yl)-3,5-dichloro-N-((3-fluoropyridin-4-yl)methyl)thieno[3,2-b]pyridin-7-amine]
17 | ≤ 30 | ≤ 30 | N[C@H]1CC=CC[C@@H]1c1sc2c(NCc3ccccc3)nc(Cl)nc2c1Br [Compound 241, 6-((1S,6S)-6-aminocyclohex-3-en-1-yl)-N-benzyl-7-bromo-2-chlorothieno[3,2-d]pyrimidin-4-amine]
18 | ≤ 30 | ≤ 30 | N#Cc1cc(NCc2ccco2)c2sc([C@H]3CC=CC[C@@H]3N)c(Cl)c2n1 [Compound 242, 2-((1S,6S)-6-aminocyclohex-3-en-1-yl)-3-chloro-7-((furan-2-ylmethyl)amino)thieno[3,2-b]pyridine-5-carbonitrile]
19 | ≤ 30 | ≤ 30 | N[C@H]1CCCO[C@@H]1c1c(Cl)c2nc(Cl)nc(NCc3ccco3)c2n1C(F)F [Compound 244, 6-((2S,3S)-3-aminotetrahydro-2H-pyran-2-yl)-2,7-dichloro-5-(difluoromethyl)-N-(furan-2-ylmethyl)-5H-pyrrolo[3,2-d]pyrimidin-4-amine]
20 | ≤ 30 | 30 to 300 | Cc1c([C@H]2CC=CC[C@@H]2N)sc2c(NCc3cccs3)cc(C#N)nc12 [Compound 246, 2-((1S,6S)-6-aminocyclohex-3-en-1-yl)-3-methyl-7-((thiophen-2-ylmethyl)amino)thieno[3,2-b]pyridine-5-carbonitrile]
21 | 30 to 300 | 30 to 300 | Cc1c([C@H]2CC=CC[C@@H]2N)sc2c(NCc3ccsc3)cc(Cl)nc12 [Compound 247, 2-((1S,6S)-6-aminocyclohex-3-en-1-yl)-5-chloro-3-methyl-N-(thiophen-3-ylmethyl)thieno[3,2-b]pyridin-7-amine]
22 | 30 to 300 | 30 to 300 | N[C@H]1CCCO[C@@H]1c1c(Br)c2nc(Cl)nc(NCc3cccs3)c2n1C(F)F [Compound 248, 6-((2S,3S)-3-aminotetrahydro-2H-pyran-2-yl)-7-bromo-2-chloro-5-(difluoromethyl)-N-(thiophen-2-ylmethyl)-5H-pyrrolo[3,2-d]pyrimidin-4-amine]
23 | 30 to 300 | ≤ 30 | CC#CCNc1cc(Cl)nc2c(Br)c([C@H]3CC(C)=C(C)C[C@@H]3N)sc12 [Compound 249, 2-((1S,6S)-6-amino-3,4-dimethylcyclohex-3-en-1-yl)-3-bromo-N-(but-2-yn-1-yl)-5-chlorothieno[3,2-b]pyridin-7-amine]
24 | 30 to 300 | 30 to 300 | CC#CCNc1cc(Cl)nc2c(Cl)c([C@H]3CC=CC[C@@H]3N)sc12 [Compound 250, 2-((1S,6S)-6-aminocyclohex-3-en-1-yl)-N-(but-2-yn-1-yl)-3,5-dichlorothieno[3,2-b]pyridin-7-amine]
25 | 30 to 300 | ≤ 30 | N[C@H]1CCCO[C@@H]1c1sc2c(NCc3ccncc3)cc(Cl)nc2c1Br [Compound 251, 2-((2S,3S)-3-aminotetrahydro-2H-pyran-2-yl)-3-bromo-5-chloro-N-(pyridin-4-ylmethyl)thieno[3,2-b]pyridin-7-amine]
26 | 30 to 300 | ≤ 30 | Cc1c([C@H]2CC=CC[C@@H]2N)sc2c(NCc3ccncc3F)nc(Cl)nc12 [Compound 253, 6-((1S,6S)-6-aminocyclohex-3-en-1-yl)-2-chloro-N-((3-fluoropyridin-4-yl)methyl)-7-methylthieno[3,2-d]pyrimidin-4-amine]
27 | 30 to 300 | 30 to 300 | N[C@H]1CCCO[C@@H]1c1c(I)c2nc(Cl)nc(NCc3cccs3)c2n1C(F)F [Compound 254, 6-((2S,3S)-3-aminotetrahydro-2H-pyran-2-yl)-2-chloro-5-(difluoromethyl)-7-iodo-N-(thiophen-2-ylmethyl)-5H-pyrrolo[3,2-d]pyrimidin-4-amine]
28 | 30 to 300 | ≤ 30 | Cc1c([C@H]2CC=CC[C@@H]2N)sc2c(NCc3ccccc3)cc(Cl)nc12 [Compound 258, 2-((1S,6S)-6-aminocyclohex-3-en-1-yl)-N-benzyl-5-chloro-3-methylthieno[3,2-b]pyridin-7-amine]
29 | 30 to 300 | ≤ 30 | Cc1c([C@H]2COCC[C@@H]2N)sc2c(NCc3ccco3)cc(Cl)nc12 [Compound 260, 2-((3R,4S)-4-aminotetrahydro-2H-pyran-3-yl)-5-chloro-N-(furan-2-ylmethyl)-3-methylthieno[3,2-b]pyridin-7-amine]
30 | 30 to 300 | 30 to 300 | [2H]C1=C([2H])C([2H])([2H])[C@H](c2sc3c(NCc4cccs4)cc(Cl)nc3c2C)[C@@H](N)C1([2H])[2H] [Compound 261, 2-((1S,6S)-6-aminocyclohex-3-en-1-yl-2,2,3,4,5,5-d6)-5-chloro-3-methyl-N-(thiophen-2-ylmethyl)thieno[3,2-b]pyridin-7-amine]
